Laboratory results reported in patent publication US8999456B2, “Method for manufacturing of drug-releasing stent coated with titanium—oxide thin film” (Industry Foundation of Chonnam National University, priority 2009, dated 2015).

Assay: Quantity of drug attached to the stent by UV absorbance and calibration curves
Type: physicochemical
Details: FIG. 7
Procedure: In order to measure the quantity of α-lipoic acid and ReoPro attached to the stent, standard solutions with four concentrations were prepared for each drug. Absorbance was measured using a UV spectrometer (Shimadzu 1601, Japan) at 330 nm for α-lipoic acid and at 278 nm for ReoPro. Thus, calibration curves were drawn for α-lipoic acid and ReoPro. Then, in order to measure the quantity of the drugs attached to the stent, each 500 μL of the reaction solution was taken before and after the reaction, which were diluted by mixing with triple distilled water (2.5 mL) and subjected to absorbance measurement at 278 nm and 330 nm, respectively. The measurement result was compared with the calibration curves to determine the quantity of α-lipoic acid and ReoPro attached to the stent.
After binding a drug on the surface of the stent that had been modified with hydroxyl groups, the amount of the bound drug was calculated using the calibration curves. […] Therefore, it can be seen that a 10 to 50 W is ideal for modification of the titanium dioxide thin film using water.

- quantity of attached α-lipoic acid (discharge power applied for the surface modification 20 W): 250 µg
- quantity of attached α-lipoic acid (surface modification at 60 W): decreased remarkably
- quantity of attached α-lipoic acid (thin films modified at 10, 30, 40 and 50 W): about 150 μg
SMILES: O=C(O)CCCCC1CCSS1 (stereo not drawn) [α-lipoic acid]
